Assay results published in patent publication US8614218B2, “Fused bicyclic pyrimidines” (Bayer Intellectual Property GmbH, priority 2007, dated 2013).
pIC50: −log10 of the molar value.

Assays:
phospho-GSK3 (Ser9) = assay: Cellular pGSK3 assay (phospho-GSK3 ELISA); assay type: cell-based; conditions: Homo sapiens, MCF7 cells, 48 h incubation, read-out: Cellular pGSK3 pathway assay
Experimental: In order to study the cellular activity of the compounds according to the present invention, an ELISA-based assay has been established for the phosphorylated protein glycogen synthetase kinase 3 (GSK3). The assay is based on a solid phase sandwich ELISA that detects endogenous levels of phosphorylated GSK3 using a phospho-GSK3 (Ser9) specific antibody (BioSource International, Inc.; Catalog #KHO0461). After incubation with cell lysates, the coated antibody captures the phosphorylated GSK3 protein. Following extensive washing, GSK3 polyclonal antibody is added to detect the captured phospho-GSK3 protein. Secondary antibody (anti-rabbit IgG-HRP) is then used to recognize the bound detection antibody. After the second incubation and washing to remove all the excess anti-rabbit IgG-HRP, a substrate solution is added, which is acted upon by the bound enzyme to produce color. The intensity of this colored product is directly proportional to the concentration of GSK-3β [pS9] present in the original specimen. MCF7 cells (ATCC HTB-22) were seeded into 96 well fate bottom plates at a density of 10000 cells/well. After 24 h 1 μl each of the compound dilutions (test compounds were dissolved as 10 mM solutions in dimethylsulfoxide (DMSO) and subsequently diluted) were added into each well of the 96 well plates and incubated for 48 h at 37° C. in a humidified atmosphere containing 5% CO2. Cells were harvested and lysed in cell extraction buffer (10 mM Tris, pH 7.4, 100 mM NaCl, 1 mM EDTA, 1 mM EGTA, 1 mM NaF, 20 mM Na4P2O7, 2 mM Na3VO4, 1% Triton X-100, 10 vol % glycerol, 0.1 vol % SDS, 0.5 vol % deoxycholate, 1 mM phenylmethylsulfonylfluoride (PMSF)). The lysate were centrifuged for 10 min. at 4° C. and the supernatant were transferred to a new tube. 50 μl of sample diluent (standard diluent buffer, Biosource) were added and 100 μl of cell lysate transferred into the tube and vortexed. 100 μl of each diluted cell lysate were added to the appropriate ELISA well plate and incubated for 3 h at room temperature. The plates were washed 4 times with 1× wash buffer (Biosource). 50 μl of detection antibody (GSK3 (Ser9) detection antibody; BioSource) were added to each well and incubated for 30 min. at room temperature. The washing procedure was repeated between each step. 100 μl of HRP-linked secondary antibody (anti-mouse IgG HRP-linked antibody) were added to each well and incubated for 30 min. at room temperature. 100 μl of TMB substrate (0.05 vol % 3,3′,5,5′ tetramethylbenzidine, 0.1 vol % hydrogen peroxide, complex polypeptides in a buffered solution; Biosource) were added to each well and incubated for 30 min. at room temperature. Finally 100 μl of Stop solution (0.05 vol % α and β unsaturated carbonyl compound) were added to each well and the plate were shaked gently for a few seconds. The absorbance was measured at λ=450 nm (Wallac Victor2; Perkin Elmer, USA) within 30 min. after adding the stop solution.
The analysis of the data was performed using a statistical program (Excel; Microsoft, USA) and the IC50 of pGSK3 inhibition was determined.

A549 cells = assay: Cellular proliferation/cytotoxicity assay (Alamar Blue), A549; assay type: cell-based; conditions: Homo sapiens, 72 h, Alamar Blue (Resazurin), read-out: Anti-proliterative/Cytotoxic activity (A549 cells)
How it was run: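 OvCAR3 (10000 cells/well) or A549 (2000 cells/well) were dosed 24 h after seeding and exposed for 72 h at 37 °C, 5% CO2, in duplicate or more. Resazurin was added for 4 h and fluorescence read at 544/590 nm. Viability is relative to untreated 0.5% DMSO controls, with IC50 by non-linear regression.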

Row | pIC50 (phospho-GSK3 (Ser9)) | Compound | pIC50 (A549 cells)
1 | < 5.00 | CC(c1ccc(-c2nc3nccn3cc2-c2ccccc2)cc1)N1CCC(c2n[nH]c(-c3ccccn3)n2)CC1 (racemic) [Example 23, 6-phenyl-7-(4-{1-[4-(5-pyridin-2-yl-1H-1,2,4-triazol-3-yl)piperidin-1-yl]ethyl}phenyl)imidazo[1,2-a]pyrimidine] | < 5.00
2 | 5.00 to 6.00 | Fc1cnc2nc(-c3ccc(CN4CCC(c5n[nH]c(-c6cnccn6)n5)CC4)cc3)c(-c3ccccc3)cn12 [Example 24, 3-fluoro-6-phenyl-7-(4-{[4-(5-pyrazin-2-yl-1,2,4-triazol-3-yl)piperidin-1-yl]methyl}phenyl)imidazo[1,2-a]pyrimidine] | < 5.00
3 | < 5.00 | Fc1cnc2nc(-c3ccc(CN4CCC(c5n[nH]c(-c6ncccn6)n5)CC4)cc3)c(-c3ccccc3)cn12 [Example 25, 3-fluoro-6-phenyl-7-(4-{[4-(5-pyrimidin-2-yl-1H-1,2,4-triazol-3-yl)piperidin-1-yl]methyl}phenyl)imidazo[1,2-a]pyrimidine] | < 5.00
4 | > 6.00 | Clc1cnn2cc(-c3ccccc3)c(-c3ccc(CN4CCC(c5n[nH]c(-c6ccccn6)n5)CC4)cc3)nc12 [Example 30, 3-Chloro-6-phenyl-5-(4-{[4-(5-pyridin-2-yl-1H-1,2,4-triazol-3-yl)piperidin-1-yl]methyl}phenyl)pyrazolo[1,5-a]pyrimidine] | > 5.00
5 | > 6.00 | Brc1cnn2cc(-c3ccccc3)c(-c3ccc(CN4CCC(c5n[nH]c(-c6ccccn6)n5)CC4)cc3)nc12 [Example 31, 3-Bromo-6-phenyl-5-(4-{[4-(5-pyridin-2-yl-1H-1,2,4-triazol-3-yl)piperidin-1-yl]methyl}phenyl)pyrazolo[1,5-a]pyrimidine] | > 5.00
6 | > 6.00 | N#Cc1cnn2cc(-c3ccccc3)c(-c3ccc(CN4CCC(c5n[nH]c(-c6ccccn6)n5)CC4)cc3)nc12 [Example 32, 6-Phenyl-5-(4-{[4-(5-pyridin-2-yl-1H-1,2,4-triazol-3-yl)piperidin-1-yl]methyl}phenyl)pyrazolo[1,5-a]pyrimidine-3-carbonitrile] | < 5.00
7 | 5.00 to 6.00 | C#Cc1cnn2cc(-c3ccccc3)c(-c3ccc(CN4CCC(c5n[nH]c(-c6ccccn6)n5)CC4)cc3)nc12 [Example 33, 3-Ethynyl-6-phenyl-5-(4-{[4-(5-pyridin-2-yl-1H-1,2,4-triazol-3-yl)piperidin-1-yl]methyl}phenyl)pyrazolo[1,5-a]pyrimidine] | > 5.00
8 | 5.00 to 6.00 | CCc1cnn2cc(-c3ccccc3)c(-c3ccc(CN4CCC(c5n[nH]c(-c6ccccn6)n5)CC4)cc3)nc12 [Example 34, 3-Ethyl-6-phenyl-5-(4-{[4-(5-pyridin-2-yl-1H-1,2,4-triazol-3-yl)piperidin-1-yl]methyl}phenyl)pyrazolo[1,5-a]pyrimidine] | > 5.00
9 | 5.00 to 6.00 | Cc1ccnc(-c2nc(C3CCN(Cc4ccc(-c5nc6nccn6cc5-c5ccccc5)cc4)CC3)n[nH]2)c1 [Example 35, 7-[4-({4-[5-(4-Methylpyridin-2-yl)-1H-1,2,4-triazol-3-yl]piperidin-1-yl}methyl)phenyl]-6-phenylimidazo[1,2-a]pyrimidine] | > 5.00
10 | > 6.00 | Cc1cccc(-c2nc(C3CCN(Cc4ccc(-c5nc6nccn6cc5-c5ccccc5)cc4)CC3)n[nH]2)n1 [Example 36, 7-[4-({4-[5-(6-Methylpyridin-2-yl)-1H-1,2,4-triazol-3-yl]piperidin-1-yl}methyl)phenyl]-6-phenylimidazo[1,2-a]pyrimidine] | > 5.00
11 | > 6.00 | CCc1nc2nc(-c3ccc(CN4CCC(c5n[nH]c(-c6ccccn6)n5)CC4)cc3)c(-c3ccccc3)cn2n1 [Example 40, 2-Ethyl-6-phenyl-5-(4-{[4-(5-pyridin-2-yl-1H-1,2,4-triazol-3-yl)piperidin-1-yl]methyl}phenyl)[1,2,4]triazolo[1,5-a]pyrimidine] | > 5.00
